The test deals with T1, C-X-C chemokine receptor type 5 (Homo sapiens, UniProt P32302).
T1 sequence (P32302 whole entry): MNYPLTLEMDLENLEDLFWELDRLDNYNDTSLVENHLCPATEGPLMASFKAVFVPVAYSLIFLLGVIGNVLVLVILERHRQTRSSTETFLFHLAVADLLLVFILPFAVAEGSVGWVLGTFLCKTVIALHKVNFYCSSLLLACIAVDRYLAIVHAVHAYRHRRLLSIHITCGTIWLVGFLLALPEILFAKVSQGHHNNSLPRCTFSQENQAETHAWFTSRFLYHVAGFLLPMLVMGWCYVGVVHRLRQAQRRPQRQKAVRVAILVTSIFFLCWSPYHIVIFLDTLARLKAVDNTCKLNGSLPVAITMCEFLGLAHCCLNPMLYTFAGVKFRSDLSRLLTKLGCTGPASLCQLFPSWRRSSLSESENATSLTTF
The experiment in a line: Antagonist activity against human CXCR5 expressed in RBL cells assessed as inhibition of human CXCL13-induced intracellular Ca2+ level by fluo-4/AM dye based FLIPR assay. The class given is functional, cell-based.
As to `O=C(NC1(C(=O)O)Cc2ccccc2C1)c1cccc2c1CCCC2`, the IC50 came out at 0.675 µM.

On to `O=C(NC1(C(=O)O)Cc2ccc(C(F)(F)F)cc2C1)c1cccc2c1CCCC2` (stereo unspecified), for which the IC50 was 6.1 µM.

As to `CCCC(CC)c1c(C)cccc1C(=O)NC1(C(=O)O)Cc2ccccc2C1` (stereo unspecified), the IC50 worked out at 3.87 µM.

As for `C=CCOc1c(Cl)cc(Cl)cc1S(=O)(=O)NC1(C(=O)O)Cc2ccccc2C1`, the IC50 worked out at 13 µM.

As for `Cc1cccc(C(=O)NC2(C(=O)O)Cc3ccccc3C2)c1/C=C/C1CC1`, the 50% inhibitory concentration (IC50) is 8.2 µM.

As to `Cc1cccc(C(=O)NC2(C(=O)O)Cc3ccccc3C2)c1C1=CCCCC1`, the IC50 was 1.05 µM.

As to `CCCCCc1c(C)cccc1C(=O)NC1(C(=O)O)Cc2ccccc2C1`, the concentration for half-maximal inhibition (IC50) stood at 2.3 µM.

For the molecule `Cc1cccc(C(=O)NC2(C(=O)O)Cc3ccccc3C2)c1OC1CCC1`, the IC50 was 0.47 µM.

For `O=C(NC1(C(=O)O)Cc2ccccc2C1)c1cccc2[nH]ccc12`, the IC50 was more than 30 µM.

Regarding `Cc1cccc(C(=O)NC2(C(=O)O)Cc3ccc(F)cc3C2)c1C1=CCCC1` (stereo unspecified), the IC50 was found to be 0.013 µM.

Turning to `Cc1cccc(C(=O)NC2(C(=O)O)CCSCC2)c1OC(C)C`, the half-inhibitory concentration (IC50) was 24 µM.

As for `Cc1cccc(C(=O)NC2(C(=O)O)Cc3ccc(C#N)cc3C2)c1OC(C)C` (stereo unspecified), the half-inhibitory concentration (IC50) was 20.5 µM.

Take `Cc1cccc(C(=O)NC2(C(=O)O)Cc3ccc(C(=O)O)cc3C2)c1OC1CCC1` (stereo unspecified): the IC50 is more than 30 µM.

Regarding `Cc1cccc(C(=O)NC2(C(=O)O)Cc3ccccc3C2)c1CC(C)C`, the IC50 worked out at 0.014 µM.

`CCCc1c(C)cccc1C(=O)NC1(C(=O)O)Cc2ccc(F)cc2C1` (stereo unspecified): the IC50 was 0.047 µM.

As for `O=C(NC1(C(=O)O)Cc2ccccc2C1)c1cccc2ccccc12`, the IC50 turned out to be 5.45 µM.

Consider `CCOc1ccc2ccccc2c1C(=O)NC1(C(=O)O)Cc2ccccc2C1`, for which the IC50 came to 19.6 µM.

As to `Cc1cc2c(cc1C)CC(NC(=O)c1cccc(C)c1OC(C)C)(C(=O)O)C2`, the concentration for half-maximal inhibition (IC50) worked out at 27 µM.

Turning to `C=CCOc1c(Cl)cccc1C(=O)NC1(C(=O)O)Cc2ccccc2C1`, the 50% inhibitory concentration (IC50) was 3.65 µM.

Regarding `Cc1cccc(C(=O)NC2(C(=O)O)Cc3ccc(F)cc3C2)c1OC(C)C` (stereo unspecified), the IC50 is 0.537 µM.

Turning to `COc1ccc2c(c1)CC(NC(=O)c1cccc3c1CCCC3)(C(=O)O)C2` (stereo unspecified), the IC50 was found to be 9.5 µM.

As for `O=C(O)c1ccc2c(c1)CC(NC(=O)c1cccc3c1CCCC3)(C(=O)O)C2` (stereo unspecified), the IC50 was more than 30 µM.

As for `Cc1cccc(C(=O)NC2(C(=O)O)Cc3ccc(C(F)(F)F)cc3C2)c1OC(C)C` (stereo unspecified), the IC50 was determined as 14.8 µM.

With `NC(=O)c1ccc2c(c1)CC(NC(=O)c1cccc3c1CCCC3)(C(=O)O)C2` (stereo unspecified), the IC50 is more than 30 µM.

Regarding `Cc1cccc(C(=O)N[C@@]2(C(=O)O)Cc3ccc(F)cc3C2)c1CC(C)C` (single isomer, unassigned), the IC50 was found to be 0.007 µM.

Take `O=C(NC1(C(=O)O)Cc2ccc(F)cc2C1)c1cccc2c1CCCC2` (stereo unspecified): the IC50 worked out at 0.298 µM.

With `CC(C)=Cc1c(C)cccc1C(=O)NC1(C(=O)O)Cc2ccc(F)cc2C1` (stereo unspecified), the 50% inhibitory concentration (IC50) is 0.011 µM.

As for `CC(C)Oc1c(Cl)cc(Cl)cc1S(=O)(=O)NC1(C(=O)O)Cc2ccccc2C1`, the IC50 was 16 µM.

Take `O=C(NC1(C(=O)O)Cc2ccccc2C1)c1cccc2c1OCCO2`: the IC50 is more than 30 µM.

Consider `C/C=C/c1c(C)cccc1C(=O)NC1(C(=O)O)Cc2ccccc2C1`, for which the IC50 is 0.232 µM.

On to `Cc1cccc(C(=O)NC2(C(=O)O)Cc3ccc(F)cc3C2)c1OC1CCC1` (stereo unspecified), for which the IC50 amounted to 0.38 µM.

For `CC(C)=Cc1c(C)cccc1C(=O)NC1(C(=O)O)Cc2c(F)ccc(F)c2C1`, the IC50 was 0.038 µM.

Consider `CC(C)=Cc1c(C)cccc1C(=O)NC1(C(=O)O)Cc2ccc(Cl)cc2C1` (stereo unspecified), for which the IC50 is 0.009 µM.

Take `Cc1cccc(C(=O)NC2(C(=O)O)Cc3ccc(C(=O)O)cc3C2)c1OC(C)C` (stereo unspecified): the IC50 is more than 30 µM.

As for `O=C(NC1(C(=O)O)Cc2ccc(F)cc2C1)c1cc(Cl)cc(Cl)c1OC1CCC1` (stereo unspecified), the IC50 was 0.268 µM.

Regarding `O=C(NC1(C(=O)O)Cc2ccccc2C1)c1cc(F)cc2c1OCOC2`, the IC50 was 30 µM.

For the molecule `CCCc1c(C)cccc1C(=O)NC1(C(=O)O)Cc2cc(F)c(F)cc2C1`, the half-inhibitory concentration (IC50) stood at 0.045 µM.

Consider `CCCc1c(C)cccc1C(=O)NC1(C(=O)O)Cc2ccccc2C1`, for which the IC50 turned out to be 0.023 µM.

Take `Cc1cccc(C(=O)NC2(C(=O)O)Cc3ccc(C(N)=O)cc3C2)c1OC1CCC1` (stereo unspecified): the IC50 was more than 30 µM.

In the case of `Cc1cccc(C(=O)NC2(C(=O)O)Cc3ccccc3C2)c1OCC1CC1`, the IC50 came to 2.93 µM.

Regarding `CC(C)=Cc1c(C)cccc1C(=O)NC1(C(=O)O)Cc2cc(F)c(F)cc2C1`, the IC50 turned out to be 0.015 µM.

For `O=C(NC1(C(=O)O)Cc2ccccc2C1)c1cccc2cc[nH]c12`, the IC50 is more than 30 µM.

For the molecule `Cc1cccc(C(=O)NC2(C(=O)O)Cc3ccc(C(N)=O)cc3C2)c1OC(C)C` (stereo unspecified), the IC50 is more than 30 µM.

For the molecule `O=C(NC1(C(=O)O)Cc2ccccc2C1)c1cccc2cccnc12`, the IC50 was more than 30 µM.

In the case of `O=C(NC1(C(=O)O)Cc2ccccc2C1)c1ccc(F)c2ccccc12`, the IC50 stood at 13 µM.

As for `CCC/C=C\c1c(C)cccc1C(=O)NC1(C(=O)O)Cc2ccccc2C1`, the IC50 amounted to 0.099 µM.

Take `C/C=C/c1c(C)cccc1C(=O)NC1(C(=O)O)Cc2ccc(F)cc2C1` (stereo unspecified): the IC50 turned out to be 0.2 µM.

As for `CC(C)=Cc1c(C)cccc1C(=O)NC1(C(=O)O)Cc2ccc(F)c(F)c2C1` (stereo unspecified), the IC50 worked out at 0.005 µM.

Regarding `Cc1cccc(C(=O)NC2(C(=O)O)Cc3ccc(F)cc3C2)c1CC(C)C` (stereo unspecified), the IC50 was determined as 0.015 µM.

Turning to `CCC(C)Oc1c(C)cccc1C(=O)NC1(C(=O)O)Cc2ccccc2C1` (stereo unspecified), the IC50 was determined as 1.08 µM.

Consider `CC(C)=Cc1c(C(=O)NC2(C(=O)O)Cc3ccccc3C2)cccc1C(F)(F)F`, for which the IC50 came out at 0.026 µM.

For the molecule `CC(C)=Cc1c(C)cccc1C(=O)NC1(C(=O)O)Cc2ccccc2C1`, the IC50 amounted to 0.033 µM.

For the molecule `O=C(NC1(C(=O)O)Cc2ccccc2C1)c1cncc2ccccc12`, the IC50 was more than 30 µM.

For the molecule `COc1ccc2c(c1)CC(NC(=O)c1cccc(C)c1OC(C)C)(C(=O)O)C2` (stereo unspecified), the IC50 came out at 18.2 µM.

`Cc1cccc(C(=O)NC2(C(=O)O)Cc3ccccc3C2)c1C1CCCC1`: the IC50 was found to be 0.533 µM.

As for `CC/C=C(/CC)c1c(C)cccc1C(=O)NC1(C(=O)O)Cc2ccccc2C1`, the IC50 was 15.2 µM.

On to `Cc1cccc(C(=O)N[C@]2(C(=O)O)Cc3ccc(F)cc3C2)c1CC(C)C` (single isomer, unassigned), for which the IC50 worked out at 0.03 µM.

For the molecule `Cc1cccc(C(=O)NC2(C(=O)O)Cc3cc(F)c(F)cc3C2)c1CC(C)C`, the IC50 is 0.017 µM.

Consider `O=C(NC1(C(=O)O)Cc2ccccc2C1)c1cccc2c1NCCC2`, for which the concentration for half-maximal inhibition (IC50) is more than 30 µM.

In the case of `CCCC#Cc1c(C)cccc1C(=O)NC1(C(=O)O)Cc2ccccc2C1`, the IC50 worked out at 19.3 µM.

`O=C(NC1(C(=O)O)Cc2ccccc2C1)c1cnc2ccccc2n1`: the IC50 is more than 30 µM.

In the case of `O=C(O)C1(NS(=O)(=O)c2cccc3cccnc23)Cc2ccccc2C1`, the IC50 was more than 30 µM.

As to `Cc1cccc(C(=O)NC2(C(=O)O)Cc3ccc(C#N)cc3C2)c1OC1CCC1` (stereo unspecified), the IC50 was determined as 10.1 µM.

For `N#Cc1ccc2c(c1)CC(NC(=O)c1cccc3c1CCCC3)(C(=O)O)C2` (stereo unspecified), the IC50 came out at 30 µM.

Turning to `Cc1cccc(C(=O)NC2(C(=O)O)Cc3ccccc3C2)c1C1=CCCC1`, the IC50 was determined as 0.056 µM.

On to `Cc1cccc(C(=O)NC2(C(=O)O)Cc3c(C)sc(C)c3C2)c1OC(C)C`, for which the IC50 came out at 17.4 µM.

`CCC/C=C/c1c(C)cccc1C(=O)NC1(C(=O)O)Cc2ccccc2C1`: the IC50 amounted to 0.446 µM.

`Cc1cccc(C(=O)NC2(C(=O)O)Cc3ccccc3C2)c1CCC1CC1`: the IC50 amounted to 0.097 µM.

In the case of `Cc1cccc(C(=O)NC2(C(=O)O)Cc3ccc(C(F)(F)F)cc3C2)c1OC1CCC1` (stereo unspecified), the IC50 was determined as 7.8 µM.

Take `Cc1sc(C)c2c1CC(NC(=O)c1cccc3c1CCCC3)(C(=O)O)C2`: the IC50 worked out at 2.85 µM.

As for `Cc1cccc(C(=O)N(C)C2(C(=O)O)Cc3ccccc3C2)c1OC(C)C`, the IC50 was more than 30 µM.
